Activity calls are given as the source filed them. The calls are words filed in the database; no cut-off is given here.
Key:
Echinochloa oryzicola [1] = test: Herbicide activity against Echinochloa oryzicola assessed as inhibition of growth of first sheath compound treated to seeds measured after 7 days; format: functional
Echinochloa oryzicola [2] = test: Herbicide activity against Echinochloa oryzicola assessed as inhibition of root growth compound treated to seeds measured after 7 days; format: functional
Echinochloa oryzicola [3] = test: Herbicide activity against Echinochloa oryzicola assessed as inhibition of shoot growth compound treated at 3 ppm to seeds measured after 7 days; format: functional, organism-based
Echinochloa oryzicola [4] = test: Herbicide activity against Echinochloa oryzicola assessed as inhibition of root growth compound treated at 3 ppm to seeds measured after 7 days; format: functional, organism-based

SMILES: CCCCC[C@]12O[C@H]1CC[C@H]2OCc1ccccc1Cl (racemic)
- growth inhibition (GI) (Echinochloa oryzicola [1]): Active
- I50 (Echinochloa oryzicola [2]): 0.5 ppm

SMILES: CCCCC[C@]12O[C@H]1CC[C@H]2OCc1ccccc1F (racemic)
- I50 (Echinochloa oryzicola [1]): 0.2 ppm
- I50 (Echinochloa oryzicola [2]): 0.03 ppm

SMILES: CCCCC[C@]12O[C@H]1CC[C@H]2OCc1ccccc1 (racemic)
- I50 (Echinochloa oryzicola [1]): 0.2 ppm
- I50 (Echinochloa oryzicola [2]): 0.03 ppm

SMILES: CCCCC[C@@]12O[C@@H]1CC[C@H]2OCc1ccccc1F (racemic)
- growth inhibition (GI) (Echinochloa oryzicola [3]): inactive
- growth inhibition (GI) (Echinochloa oryzicola [1]): Active
- growth inhibition (GI) (Echinochloa oryzicola [4]): inactive

SMILES: CCCCC[C@@]12O[C@@H]1CC[C@H]2OCc1ccccc1 (racemic)
- growth inhibition (GI) (Echinochloa oryzicola [3]): inactive
- growth inhibition (GI) (Echinochloa oryzicola [1]): Active
- growth inhibition (GI) (Echinochloa oryzicola [4]): inactive

SMILES: CCCCC[C@@]12O[C@@H]1CC[C@H]2OCc1ccccc1Cl (racemic)
- growth inhibition (GI) (Echinochloa oryzicola [3]): inactive
- growth inhibition (GI) (Echinochloa oryzicola [1]): Active
- growth inhibition (GI) (Echinochloa oryzicola [4]): inactive

SMILES: CCCCC[C@@]12O[C@@H]1CC[C@H]2OCc1ccccc1C (racemic)
- growth inhibition (GI) (Echinochloa oryzicola [3]): inactive
- growth inhibition (GI) (Echinochloa oryzicola [1]): Active
- growth inhibition (GI) (Echinochloa oryzicola [4]): inactive

SMILES: CCCCC[C@]12O[C@H]1CC[C@H]2OCc1ccccc1C (racemic)
- growth inhibition (GI) (Echinochloa oryzicola [1]): Active
- I50 (Echinochloa oryzicola [2]): 0.25 ppm

— ChEMBL document CHEMBL3045823, “Synthesis and Herbicidal Activities of the O-Syn and O-Anti Benzyl Epoxycyclopentyl Ethers” (2004)
